22 compounds from publication PMC8460821, “Bio-oriented synthesis of new sulphadiazine derivatives for urease inhibition and their pharmacokinetic analysis” (Scientific Reports, 2021) can be followed below.

Like-named read-outs stand apart in the source and are kept apart here.

One series addresses Jack bean urease (Canavalia ensiformis, UniProt P07374). In words: biochemical. Here is the method:
All the synthesized derivatives were subjected to anti-urease activity. In preliminary screening, all compounds were evaluated at 1 mM concentrations, and percentage inhibition was used as an indicator of activity. IC50 values were calculated for the scaffolds having percentage inhibition higher than 50%.
Indophenol method was used to perform the urease inhibition. 10 µL of enzyme, 40 µL buffer, 10 µL of assay moiety, 40-µL each of phenol-reagents, and alkali reagent were present in the assay mixture. Firstly, incubation of assay compounds and enzyme was done in assay buffer at 37 °C for 30 min. Then, alkaline reagents and 40 µL of phenol were mixed to quench the mixture. 96 well plates were used in enzyme assay and for reading of absorbance at 625 nm a microplate reader was helpful. The experiment was done in triplicate and PRISM 4.0 was used to get IC50, positive control was thiourea.

Jack bean urease, sequence (P07374 whole entry, looked up): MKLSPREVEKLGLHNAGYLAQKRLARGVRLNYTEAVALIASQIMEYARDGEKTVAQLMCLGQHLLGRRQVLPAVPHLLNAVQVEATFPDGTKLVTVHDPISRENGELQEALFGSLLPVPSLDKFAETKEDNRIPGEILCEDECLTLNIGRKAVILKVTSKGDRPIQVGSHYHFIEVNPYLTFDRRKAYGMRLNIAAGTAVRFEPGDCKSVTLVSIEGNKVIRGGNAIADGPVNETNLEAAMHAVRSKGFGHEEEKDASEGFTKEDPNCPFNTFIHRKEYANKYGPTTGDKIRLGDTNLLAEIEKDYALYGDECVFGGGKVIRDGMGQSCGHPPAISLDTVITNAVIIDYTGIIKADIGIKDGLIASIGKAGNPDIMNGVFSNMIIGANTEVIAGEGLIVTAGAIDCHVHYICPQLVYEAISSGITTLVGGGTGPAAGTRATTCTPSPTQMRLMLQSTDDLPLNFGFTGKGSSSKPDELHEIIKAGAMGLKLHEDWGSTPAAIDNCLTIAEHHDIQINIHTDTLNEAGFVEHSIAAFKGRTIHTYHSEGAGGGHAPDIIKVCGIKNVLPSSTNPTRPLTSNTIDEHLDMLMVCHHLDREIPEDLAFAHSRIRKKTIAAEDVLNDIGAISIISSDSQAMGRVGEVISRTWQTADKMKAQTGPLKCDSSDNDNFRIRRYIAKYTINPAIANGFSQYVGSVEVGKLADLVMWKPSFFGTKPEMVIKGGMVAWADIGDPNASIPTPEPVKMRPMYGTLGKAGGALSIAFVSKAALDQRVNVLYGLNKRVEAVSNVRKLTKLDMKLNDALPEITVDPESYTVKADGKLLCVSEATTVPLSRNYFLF

In the case of `O=S(=O)(Nc1ncccn1)c1ccc(N=Cc2ccccc2)cc1` [3a, 4-(Benzylideneamino)-N-(pyrimidin-2-yl)benzenesulfonamide], the melting point is 269 to 271 °C. Moreover, the IC50 at Jack bean urease came to 2.32 ± 0.54 µM.

With `O=S(=O)(Nc1ncccn1)c1ccc(N=Cc2ccccc2O)cc1` [3b, 4-(2-Hydroxybenzylideneamino)-N-(pyrimidin-2-yl)benzenesulfonamide], the half-maximal inhibitory concentration (IC50) on Jack bean urease came out at 3.29 ± 2 µM. For `O=S(=O)(Nc1ncccn1)c1ccc(N=Cc2cc(Br)ccc2O)cc1` [3c, 4-(5-Bromo-2-hydroxybenzylideneamino)-N-(pyrimidin-2-yl)benzenesulfonamide], on Jack bean urease (incubation 37 °C 30 min, absorbance 625 nm, triplicate, positive control thiourea), the IC50 urease inhibition entry is given as “inactivation of the compound”. In turn, `COc1ccc(C=Nc2ccc(S(=O)(=O)Nc3ncccn3)cc2)c(O)c1` [3d, 4-(2-Hydroxy-4-methoxybenzylideneamino)-N-(pyrimidin-2-yl)benzenesulfonamide] gave a melting point of 266 to 267 °C. Take `O=[N+]([O-])c1ccc(C=Nc2ccc(S(=O)(=O)Nc3ncccn3)cc2)cc1` [3e, 4-(4-Nitrobenzylideneamino)-N-(pyrimidin-2-yl)benzenesulfonamide]: the melting point was 274 to 276 °C. This compound also displayed a half-maximal inhibitory concentration (IC50) against Jack bean urease of 4.15 ± 0.77 µM. Compound `CN(C)c1ccc(C=Nc2ccc(S(=O)(=O)Nc3ncccn3)cc2)cc1` [3f, 4-(4-(Dimethylamino)benzylideneamino)-N-(pyrimidin-2-yl)benzenesulfonamide] yielded a melting point of 275 to 277 °C. The compound also yielded an IC50 at Jack bean urease of 13.14 ± 0.02 µM. In the case of `O=S(=O)(Nc1ncccn1)c1ccc(N=Cc2ccc(F)cc2)cc1` [3g, 4-(4-Fluorobenzylideneamino)-N-(pyrimidin-2-yl)benzenesulfonamide], the melting point was in the range of 283 to 285 °C. At Jack bean urease, the midpoint of inhibition, the IC50, lay at 10.1 ± 0.45 µM. On the same counts, the results for `COc1ccc(C=Nc2ccc(S(=O)(=O)Nc3ncccn3)cc2)cc1` [3h, 4-(4-Methoxybenzylideneamino)-N-(pyrimidin-2-yl)benzenesulfonamide] are 287 to 289 °C and 45.6 ± 0.56 µM. For the compound `O=S(=O)(Nc1ncccn1)c1ccc(N=Cc2ccc(Cl)cc2O)cc1` [3i, 4-(4-Chloro-2-hydroxybenzylideneamino)-N-(pyrimidin-2-yl)benzenesulfonamide], the melting point lay within 285 to 287 °C. At Jack bean urease, the midpoint of inhibition, the IC50, lay at 25.56 ± 0.22 µM. On the same counts, the results for `O=S(=O)(Nc1ncccn1)c1ccc(N=Cc2ccc(F)cc2O)cc1` [3j, 4-(4-Fluoro-2-hydroxybenzylideneamino)-N-(pyrimidin-2-yl)benzenesulfonamide] are 279 to 281 °C and 19 ± 1.23 µM. In turn, `O=S(=O)(Nc1ncccn1)c1ccc(N=Cc2ccc(O)cc2O)cc1` [3k, 4-(2,4-Dihydroxybenzylideneamino)-N-(pyrimidin-2-yl)benzenesulfonamide] had a melting point of 280 to 282 °C. Also, the IC50 against Jack bean urease amounted to 12.1 ± 2.43 µM. In the case of `O=S(=O)(Nc1ncccn1)c1ccc(N=Cc2ccc(F)cc2Br)cc1` [3l, 4-(2-Bromo-4-fluorobenzylideneamino)-N-(pyrimidin-2-yl)benzenesulfonamide], the melting point lay within 285 to 287 °C. Moreover, it took 2.21 ± 0.45 µM to reach half-maximal inhibition against Jack bean urease (IC50). For the same compound, on Jack bean urease (ratio of urease IC50 values), the “Potency relative to standard thiourea” value is reported as 10 times. As for `O=S(=O)(Nc1ncccn1)c1ccc(N=Cc2ccc(F)cc2Cl)cc1` [3m, 4-(2-Chloro-4-fluorobenzylideneamino)-N-(pyrimidin-2-yl)benzenesulfonamide], the melting point is 277 to 279 °C. The same compound returned an IC50 against Jack bean urease of 15.7 ± 2.45 µM. As for `O=S(=O)(Nc1ncccn1)c1ccc(N=Cc2ccc(Br)cc2F)cc1` [3n, 4-(4-Bromo-2-fluorobenzylideneamino)-N-(pyrimidin-2-yl)benzenesulfonamide], the melting point was in the range of 291 to 293 °C. At Jack bean urease, this compound had an IC50 of 18.2 ± 1.78 µM. As for `O=S(=O)(Nc1ncccn1)c1ccc(N=Cc2ccc(Cl)cc2Br)cc1` [3o, 4-(2-Bromo-4-chlorobenzylideneamino)-N-(pyrimidin-2-yl)benzenesulfonamide], the melting point is 277 to 279 °C. The compound further had an IC50 on Jack bean urease of 5.04 ± 0.4 µM. On the same counts, the results for `O=S(=O)(Nc1ncccn1)c1ccc(N=Cc2ccc(Cl)cc2F)cc1` [3p, 4-(4-Chloro-2-fluorobenzylideneamino)-N-(pyrimidin-2-yl)benzenesulfonamide] are 275 to 277 °C and 17.07 ± 0.02 µM. With `O=S(=O)(Nc1ncccn1)c1ccc(N=Cc2ccc(Cl)cc2Cl)cc1` [3q, 4-(2,4-Dichlorobenzylideneamino)-N-(pyrimidin-2-yl)benzenesulfonamide], the melting point lay in the range of 291 to 293 °C. Further, the IC50 against Jack bean urease was 4.05 ± 1.1 µM. `O=S(=O)(Nc1ncccn1)c1ccc(N=Cc2ccc(F)cc2F)cc1` [3r, 4-(2,4-Difluorobenzylideneamino)-N-(pyrimidin-2-yl)benzenesulfonamide] displayed a melting point of 279 to 281 °C. At Jack bean urease, this compound came in with a 50% inhibitory concentration (IC50) of 13.1 ± 2.55 µM.

`O=S(=O)(Nc1ncccn1)c1ccc(N=Cc2ccc(Br)cc2Br)cc1` [3s, 4-(2,4-Dibromobenzylideneamino)-N-(pyrimidin-2-yl)benzenesulfonamide] yielded a melting point of 273 to 275 °C. This compound also registered a half-maximal inhibitory concentration (IC50) at Jack bean urease of 6.09 ± 0.45 µM.

For the compound `O=S(=O)(Nc1ncccn1)c1ccc(N=Cc2ccc(O)cc2)cc1` [3t, 4-(4-Hydroxybenzylideneamino)-N-(pyrimidin-2-yl)benzenesulfonamide], the melting point lay in the range of 271 to 273 °C. At Jack bean urease, this compound showed an IC50 of 8.9 ± 2.45 µM.

Consider `Cc1ccc(C=Nc2ccc(S(=O)(=O)Nc3ncccn3)cc2)c(O)c1` [3u, 4-(2-Hydroxy-4-methylbenzylideneamino)-N-(pyrimidin-2-yl)benzenesulfonamide], for which the melting point lay within 279 to 281 °C.

For the compound `NC(N)=S` [thiourea, reference compound], the 50% inhibitory concentration (IC50) at Jack bean urease (incubation 37 °C 30 min, absorbance 625 nm, triplicate, positive control thiourea, read-out: IC50 urease inhibition) was determined as 20 ± 2.06 µM.
